Results: patent US7553966B2, “Glucocorticoid mimetics, methods of making them, pharmaceutical compositions, and uses thereof” (Boehringer Ingelheim Pharmaceuticals, Inc., priority 2002, dated 2009)

What was measured:
[1] = biological target: T1, human glucocorticoid receptor (GR) complex (Homo sapiens, UniProt P04150); test: Glucocorticoid Receptor Competitive Binding Assay (fluorescence polarization, TAMRA-labeled dexamethasone probe); conditions: qualitative statement; competition with TAMRA-labeled dexamethasone
T1 construct: made in house; host or cells: insect expression system (baculovirus lysate)
T1 sequence (P04150 1-777): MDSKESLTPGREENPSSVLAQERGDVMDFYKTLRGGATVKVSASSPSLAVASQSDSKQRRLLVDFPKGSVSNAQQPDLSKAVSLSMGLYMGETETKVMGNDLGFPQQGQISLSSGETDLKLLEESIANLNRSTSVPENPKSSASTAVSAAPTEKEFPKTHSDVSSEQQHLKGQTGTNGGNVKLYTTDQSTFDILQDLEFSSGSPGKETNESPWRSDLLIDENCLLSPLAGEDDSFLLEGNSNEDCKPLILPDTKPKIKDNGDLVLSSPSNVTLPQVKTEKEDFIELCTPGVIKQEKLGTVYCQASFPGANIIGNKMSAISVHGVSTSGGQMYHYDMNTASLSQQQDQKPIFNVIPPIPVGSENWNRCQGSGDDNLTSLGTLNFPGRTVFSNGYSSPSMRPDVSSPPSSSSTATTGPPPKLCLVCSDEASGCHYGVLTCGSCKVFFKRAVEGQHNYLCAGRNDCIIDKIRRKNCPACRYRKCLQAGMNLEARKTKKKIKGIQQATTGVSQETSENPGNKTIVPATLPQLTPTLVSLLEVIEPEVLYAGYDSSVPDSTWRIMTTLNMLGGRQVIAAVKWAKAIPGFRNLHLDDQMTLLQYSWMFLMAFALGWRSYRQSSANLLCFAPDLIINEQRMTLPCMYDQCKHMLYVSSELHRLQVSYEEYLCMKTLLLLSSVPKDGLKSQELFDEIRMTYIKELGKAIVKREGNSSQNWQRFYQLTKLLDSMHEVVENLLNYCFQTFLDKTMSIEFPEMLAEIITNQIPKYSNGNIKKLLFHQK
Summary of the method: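 Competition with TAMRA-dexamethasone for a human GR complex expressed in insect cells, read by fluorescence polarization. Buffer was 10 mM TES, 50 mM KCl, 20 mM Na2MoO4, 1.5 mM EDTA, 0.04% CHAPS, 10% glycerol, 1 mM DTT, pH 7.4.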

[2] = test system: glucocorticoid receptor; test: Glucocorticoid Receptor Cell Assays (agonist activity in one or more of the above assays); format: cell-based; conditions: qualitative statement; assay not specified
Protocol: B. Glucocorticoid Receptor Cell Assays
1. Induction of Aromatase in Fibroblasts (Cell Assay for Transactivation)
Dexamethasone, a synthetic ligand to the glucocorticoid receptor (GR), induces expression of aromatase in human foreskin fibroblast cells. The activity of aromatase is measured by the conversion of testosterone to estradiol in culture media.
On the day of the experiment, the media in the wells is replaced with fresh media. Cells are treated with test compounds to final concentrations of 10^−5 M to 10^−8 M, and testosterone to a final concentration of 300 ng/mL. Each well has a total volume of 100 μL. Samples are made in duplicates. Control wells include: (a) wells that receive testosterone only, and (b) wells that receive testosterone plus 2 μM of dexamethasone to provide maximum induction of aromatase. Plates are incubated at 37° C. overnight (15 to 18 hours), and supernatants are harvested at the end of incubation. […] The amount of estradiol is inversely proportional to the ELISA signals in each well. The extent of aromatase induction by test compounds is expressed as a relative percentage to dexamethasone. EC50 values of test compounds are derived by non-linear curve fitting.
2. Inhibition of IL-6 Production in Fibroblasts (Cell Assay for Transrepression)
Human foreskin fibroblast cells produce IL-6 in response to stimulation by pro-inflammatory cytokine IL-1.
On the next day, media in the wells is replaced with fresh media. Cells are treated with IL-1 (rhIL-1α, R&D Systems Cat. No. 200-LA) to a final concentration of 1 ng/mL, and with test compounds to final concentrations of 10^−5 M to 10^−8 M, in a total volume of 200 μL per well. Samples are done in duplicates. […] Positive control wells receive IL-1 only and represent maximum (or 100%) amount of IL-6 production. Plates are incubated at 37° C. overnight (15 to 18 hours), and supernatants are harvested at the end of incubation. IL-6 levels in the supernatants are determined by the ELISA kits for IL-6 (MedSystems Diagnostics GmbH, Vienna, Austria, Cat. No. BMS213TEN) according to manufacture's instructions. The extent of inhibition of IL-6 by test compounds is expressed in percentage relative to positive controls. IC50 values of test compounds are derived by non-linear curve fitting.
Evaluation of agonist or antagonist activity of compounds binding to the glucocorticoid receptor may be determined by any of the assays.
3. Modulation of Tyrosine Aminotransferase (TAT) Induction in Rat Hepatoma Cells
Testing of compounds for agonist or antagonist activity in induction of tyrosine aminotransferase (TAT) in rat hepatoma cells.
H4-II-E-C3 cells were incubated overnight in 96 well plates (20,000 cells/100 μL/well) in MEM medium containing 10% heat inactivated FBS and 1% nonessential amino acids. On the next day, cells were stimulated with the indicated concentrations of dexamethasone or test compound (dissolved in DMSO, final DMSO concentration 0.2%) for 18 hours. Control cells were treated with 0.2% DMSO. After 18 hours, the cells were lysed in a buffer containing 0.1% Triton X-100 and the TAT activity was measured in a photometric assay using tyrosine and alpha-ketoglutarate as substrates.
For measuring antagonist activity, the hepatoma cells were pre-stimulated by addition of dexamethasone (concentration ranges from 3×10^−9 M to 3×10^−8 M) shortly before the test compound was applied to the cells.
4. Modulation of MMTV-Luc Induction in HeLa Cells
Testing of compounds for agonist or antagonist activity in stimulation of MMTV-(mouse mammary tumor virus) promoter in HeLa cells.
Cells were cultured overnight in DMEM medium without phenol red, supplemented with 3% CCS (charcoal treated calf serum) and then transferred to 96 well plates (15,000 cells/100 μL/well).

CC(C)(CC(O)(Cc1cc2cnccc2[nH]1)C(F)(F)F)c1cccc2c1OCC2 (stereo not drawn) [4-(2,3-Dihydrobenzofuran-7-yl)-1,1,1-trifluoro-4-methyl-2-(1H-pyrrolo[3,2-c]pyridin-2-ylmethyl)pentan-2-ol]
activity in the GR binding assay [1]: potent activity | activity as agonists of the glucocorticoid receptor function in one or more of the above assays [2]: potent agonists

COc1ccccc1C(C)(C)CC(O)(Cc1cc2ccccc2[nH]1)C(F)(F)F (stereo not drawn) [1,1,1-Trifluoro-2-(1H-indol-2-ylmethyl)-4-(2-methoxyphenyl)-4-methylpentan-2-ol]
activity in the GR binding assay [1]: potent activity | activity as agonists of the glucocorticoid receptor function in one or more of the above assays [2]: potent agonists

COc1cc(F)ccc1C(C)(C)CC(O)(Cc1cc2ccccc2[nH]1)C(F)(F)F (stereo not drawn) [1,1,1-Trifluoro-4-(4-fluoro-2-methoxyphenyl)-2-(1H-indol-2-ylmethyl)-4-methylpentan-2-ol]
activity in the GR binding assay [1]: potent activity | activity as agonists of the glucocorticoid receptor function in one or more of the above assays [2]: potent agonists

CC(C)(CC(O)(Cc1cc2ccncc2[nH]1)C(F)(F)F)c1ccc(F)cc1O (stereo not drawn) [5-Fluoro-2-[4,4,4-trifluoro-3-hydroxy-1,1-dimethyl-3-(1H-pyrrolo[2,3-c]pyridin-2-ylmethyl)butyl]phenol]
activity in the GR binding assay [1]: potent activity | activity as agonists of the glucocorticoid receptor function in one or more of the above assays [2]: potent agonists

CC(C)(CC(O)(Cc1[nH]c2ccccc2c1C#N)C(F)(F)F)c1cc(Br)cc2c1OCC2 (stereo not drawn) [2-[4-(5-Bromo-2,3-dihydrobenzofuran-7-yl)-2-hydroxy-4-methyl-2-trifluoromethylpentyl]-1H-indole-3-carbonitrile]
activity in the GR binding assay [1]: potent activity | activity as agonists of the glucocorticoid receptor function in one or more of the above assays [2]: potent agonists

CC(C)(CC(O)(Cc1ccnc2ccccc12)C(F)(F)F)c1cc(F)cc2c1OCC2 (stereo not drawn) [1,1,1-Trifluoro-4-(5-fluoro-2,3-dihydrobenzofuran-7-yl)-4-methyl-2-quinolin-4-ylmethylpentan-2-ol]
activity in the GR binding assay [1]: potent activity | activity as agonists of the glucocorticoid receptor function in one or more of the above assays [2]: potent agonists

CC(C)(CC(O)(Cc1cc2cc(C#N)ccc2[nH]1)C(F)(F)F)c1ccc(F)cc1 (stereo not drawn) [2-[4-(4-Fluorophenyl)-2-hydroxy-4-methyl-2-trifluoromethylpentyl]-1H-indole-5-carbonitrile]
activity in the GR binding assay [1]: potent activity | activity as agonists of the glucocorticoid receptor function in one or more of the above assays [2]: potent agonists

COc1ccc(Br)cc1C(C)(C)CC(O)(Cc1ccnc2ccccc12)C(F)(F)F (stereo not drawn) [4-(5-Bromo-2-methoxyphenyl)-1,1,1-trifluoro-4-methyl-2-quinolin-4-ylmethylpentan-2-ol]
activity in the GR binding assay [1]: potent activity | activity as agonists of the glucocorticoid receptor function in one or more of the above assays [2]: potent agonists

Cc1cc(C#N)cc2[nH]c(CC(O)(CC(C)(C)c3cccc(F)c3)C(F)(F)F)cc12 (stereo not drawn) [2-[4-(3-Fluorophenyl)-2-hydroxy-4-methyl-2-trifluoromethylpentyl]-4-methyl-1H-indole-6-carbonitrile]
activity in the GR binding assay [1]: potent activity | activity as agonists of the glucocorticoid receptor function in one or more of the above assays [2]: potent agonists

CC(C)(CC(O)(Cc1cc2cnccc2[nH]1)C(F)(F)F)c1ccccc1 (stereo not drawn) [1,1,1-Trifluoro-4-methyl-4-phenyl-2-(1H-pyrrolo[3,2-c]pyridin-2-ylmethyl)pentan-2-ol]
activity in the GR binding assay [1]: potent activity | activity as agonists of the glucocorticoid receptor function in one or more of the above assays [2]: potent agonists

COc1ccc(F)cc1C(C)(C)CC(O)(Cc1cc2cc(C#N)ccc2[nH]1)C(F)(F)F (stereo not drawn) [2-[4-(5-Fluoro-2-methoxyphenyl)-2-hydroxy-4-methyl-2-trifluoromethylpentyl]-1H-indole-5-carbonitrile]
activity in the GR binding assay [1]: potent activity | activity as agonists of the glucocorticoid receptor function in one or more of the above assays [2]: potent agonists

Cc1cc(C#N)cc2[nH]c(CC(O)(CC(C)(C)c3cccc4c3OCC4)C(F)(F)F)cc12 (stereo not drawn) [2-[4-(2,3-Dihydrobenzofuran-7-yl)-2-hydroxy-4-methyl-2-trifluoromethylpentyl]-4-methyl-1H-indole-6-carbonitrile]
activity in the GR binding assay [1]: potent activity | activity as agonists of the glucocorticoid receptor function in one or more of the above assays [2]: potent agonists

Cc1ccccc1C(C)(C)CC(O)(Cc1cc2ccccc2[nH]1)C(F)(F)F (stereo not drawn) [1,1,1-Trifluoro-2-(1H-indol-2-ylmethyl)-4-methyl-4-o-tolylpentan-2-ol]
activity in the GR binding assay [1]: potent activity | activity as agonists of the glucocorticoid receptor function in one or more of the above assays [2]: potent agonists

COc1cc(F)ccc1C(C)(C)CC(O)(Cc1[nH]c2ccccc2c1C#N)C(F)(F)F (stereo not drawn) [2-[4-(4-Fluoro-2-methoxyphenyl)-2-hydroxy-4-methyl-2-trifluoromethyl-pentyl]-1H-indole-3-carbonitrile]
activity in the GR binding assay [1]: potent activity | activity as agonists of the glucocorticoid receptor function in one or more of the above assays [2]: potent agonists

Cc1cc(C)c2[nH]c(CC(O)(CC(C)(C)c3cc(F)ccc3O)C(F)(F)F)nc2c1 (stereo not drawn) [2-[3-(5,7-Dimethyl-1H-benzoimidazol-2-ylmethyl)-4,4,4-trifluoro-3-hydroxy-1,1-dimethylbutyl]-4-fluorophenol]
activity in the GR binding assay [1]: potent activity | activity as agonists of the glucocorticoid receptor function in one or more of the above assays [2]: potent agonists

COc1ccc(Br)cc1C(C)(C)CC(O)(Cc1cc2c(C)cc(C#N)cc2[nH]1)C(F)(F)F (stereo not drawn)
activity as agonists of the glucocorticoid receptor function in one or more of the above assays [2]: potent agonists

COc1ccc(F)cc1C(C)(C)CC(O)(Cc1cc2ccccc2[nH]1)C1CC1 (stereo not drawn) [2-Cyclopropyl-4-(5-fluoro-2-methoxyphenyl)-1-(1H-indol-2-yl)-4-methylpentan-2-ol]
activity as agonists of the glucocorticoid receptor function in one or more of the above assays [2]: agonists

CC(C)(CC(O)(Cc1cc2cc(C#N)ccc2[nH]1)C(F)(F)F)c1cccc2c1OCC2 (stereo not drawn)
activity as agonists of the glucocorticoid receptor function in one or more of the above assays [2]: potent agonists
